Test results reported in ChEMBL document CHEMBL1681651, “A broad spectrum anticancer nucleoside with selective toxicity against human colon cells in vitro” (2011).

What was measured:
Format in all cases: functional
IGROV-1 [1] = assay: Growth inhibition of human IGROV1 cells assessed as cell growth at 10 uM after 48 hrs by SRB assay; conditions: IGROV-1, 48 h, read-out: Activity
IGROV-1 [2] = assay: Growth inhibition of human IGROV1 cells assessed as cell growth at 100 uM after 48 hrs by SRB assay; conditions: IGROV-1, 48 h, read-out: Activity
HCC 2998 [3] = assay: Growth inhibition of human HCC2998 cells assessed as cell growth at 1 mM after 48 hrs by SRB assay; conditions: HCC 2998, 48 h, read-out: Activity
MDA-MB-468 = assay: Growth inhibition of human MDA-MB-468 cells after 48 hrs by […] growth inhibition assay; conditions: MDA-MB-468, 48 h, read-out: LC50 (the source's name)
OVCAR-4 [4] = assay: Growth inhibition of human OVCAR4 cells assessed as cell growth at 10 uM after 48 hrs by SRB assay; conditions: OVCAR-4, 48 h, read-out: Activity
HT-29 = assay: Growth inhibition of human HT-29 cells assessed as cell growth at 100 uM after 48 hrs by SRB assay; conditions: HT-29, 48 h, read-out: Activity
MDA-MB-435 = assay: Growth inhibition of human MDA-MB-435 cells after 48 hrs by SRB assay; conditions: MDA-MB-435, 48 h
SK-MEL-28 = assay: Growth inhibition of human SK-MEL-28 cells after 48 hrs by […] growth inhibition assay; conditions: SK-MEL-28, 48 h
ACHN = assay: Growth inhibition of human ACHN cells after 48 hrs by […] growth inhibition assay
CAKI-1 = assay: Growth inhibition of human Caki1 cells after 48 hrs by […] growth inhibition assay; conditions: CAKI-1, 48 h
HCT-116 = assay: Growth inhibition of human HCT116 cells assessed as cell growth at 1 mM after 48 hrs by SRB assay; conditions: HCT-116, 48 h, read-out: Activity
SN12C = assay: Growth inhibition of human SN12C cells assessed as cell growth at 100 uM after 48 hrs by SRB assay; conditions: read-out: Activity
HCC 2998 [5] = assay: Growth inhibition of human HCC2998 cells assessed as cell growth at 100 uM after 48 hrs by SRB assay; conditions: HCC 2998, 48 h, read-out: Activity
RXF 393 = assay: Growth inhibition of human RXF393 cells assessed as cell growth at 10 uM after 48 hrs by SRB assay; conditions: RXF 393, 48 h, read-out: Activity
COLO 205 = assay: Growth inhibition of human COLO205 cells after 48 hrs by […] growth inhibition assay; conditions: COLO 205, 48 h
SF-539 = assay: Growth inhibition of human SF539 cells assessed as cell growth at 10 uM after 48 hrs by SRB assay; conditions: SF-539, 48 h, read-out: Activity
Malme-3M = assay: Growth inhibition of human MALME-3M cells assessed as cell growth at 0.1 uM after 48 hrs by SRB assay; conditions: read-out: Activity
T47D = assay: Growth inhibition of human T47D cells assessed as cell growth at 10 uM after 48 hrs by SRB assay; conditions: read-out: Activity
MCF7 [6] = assay: Growth inhibition of human MCF7 cells assessed as cell growth at 100 uM after 48 hrs by SRB assay; conditions: MCF7, 48 h, read-out: Activity
OVCAR-4 [7] = assay: Growth inhibition of human OVCAR4 cells assessed as cell growth at 100 uM after 48 hrs by SRB assay; conditions: OVCAR-4, 48 h, read-out: Activity
SNB-75 = assay: Growth inhibition of human SNB75 cells assessed as cell growth at 1 uM after 48 hrs by SRB assay; conditions: SNB-75, 48 h, read-out: Activity
SF-268 = assay: Growth inhibition of human SF268 cells assessed as cell growth at 1 uM after 48 hrs by SRB assay; conditions: SF-268, 48 h, read-out: Activity
NCI-H460 = assay: Growth inhibition of human NCI-H460 cells assessed as cell growth at 1 mM after 48 hrs by SRB assay; conditions: NCI-H460, 48 h, read-out: Activity
DU-145 = assay: Growth inhibition of human DU145 cells assessed as cell growth at 100 uM after 48 hrs by SRB assay; conditions: DU-145, 48 h, read-out: Activity
UO-31 [8] = assay: Growth inhibition of human UO31 cells assessed as cell growth at 1 mM after 48 hrs by SRB assay; conditions: UO-31, 48 h, read-out: Activity
SK-OV-3 = assay: Growth inhibition of human SKOV3 cells assessed as cell growth at 0.1 uM after 48 hrs by SRB assay; conditions: SK-OV-3, 48 h, read-out: Activity
KM12 = assay: Growth inhibition of human KM12 cells assessed as cell growth at 1 mM after 48 hrs by SRB assay; conditions: KM12, 48 h, read-out: Activity
UACC-62 = assay: Growth inhibition of human UACC62 cells assessed as cell growth at 0.1 uM after 48 hrs by SRB assay; conditions: UACC-62, 48 h, read-out: Activity
OVCAR-3 = assay: Growth inhibition of human OVCAR3 cells assessed as cell growth at 0.1 uM after 48 hrs by SRB assay; conditions: OVCAR-3, 48 h, read-out: Activity
MCF7 [9] = assay: Growth inhibition of human MCF7 cells assessed as cell growth at 0.1 uM after 48 hrs by SRB assay; conditions: MCF7, 48 h, read-out: Activity
OVCAR-4 [10] = assay: Growth inhibition of human OVCAR4 cells assessed as cell growth at 1 uM after 48 hrs by SRB assay; conditions: OVCAR-4, 48 h, read-out: Activity
A549 = assay: Growth inhibition of human A549 cells assessed as cell growth at 10 uM after 48 hrs by SRB assay; conditions: A549, 48 h, read-out: Activity
UO-31 [11] = assay: Growth inhibition of human UO31 cells assessed as cell growth at 0.1 uM after 48 hrs by SRB assay; conditions: UO-31, 48 h, read-out: Activity
UACC-257 = assay: Growth inhibition of human UACC257 cells assessed as cell growth at 100 uM after 48 hrs by SRB assay; conditions: UACC-257, 48 h, read-out: Activity
[12] = read-out: LC50 (the source's name)
[13] = read-out: pLC50 (the source's name) (converted)

CCOC(=O)C[C@H]1[C@@H](O[Si](C)(C)C(C)(C)C)[C@H](n2cnc3c(NC(=O)Nc4ccccc4)ncnc32)O[C@@H]1CNC(=O)NC
growth at 10 µM (IGROV-1 [1]): 93% | growth at 100 µM (IGROV-1 [2]): 20% | growth at 1000 µM (HCC 2998 [3]): 62% | CC50 (MDA-MB-468): > 100 µM | growth at 10 µM (OVCAR-4 [4]): 95% | growth at 100 µM (HT-29): 17% | GI50 (MDA-MB-435; read-out: GI50): 6.21 µM | LC50 (MDA-MB-435; read-out: LC50): > 100 µM | TGI (MDA-MB-435; read-out: TGI): > 100 µM | GI50 (MDA-MB-435; read-out: pGI50 (converted)): 6.17 µM | LC50 (MDA-MB-435; read-out: pLC50 (converted)): > 100 µM | TGI (MDA-MB-435; read-out: pTGI (converted)): > 100 µM | GI50 (SK-MEL-28; read-out: GI50): 6.85 µM | CC50 (SK-MEL-28; [12]): 48.7 µM | TGI (SK-MEL-28; read-out: TGI): 20.2 µM | GI50 (SK-MEL-28; read-out: pGI50 (converted)): 6.92 µM | CC50 (SK-MEL-28; [13]): > 49 µM | TGI (SK-MEL-28; read-out: pTGI (converted)): 20.4 µM | GI50 (ACHN; read-out: GI50): 8.55 µM | CC50 (ACHN; [12]): > 100 µM | TGI (ACHN; read-out: TGI): > 100 µM | GI50 (ACHN; read-out: pGI50 (converted)): 8.51 µM | CC50 (ACHN; [13]): > 100 µM | TGI (ACHN; read-out: pTGI): > 100 µM | GI50 (CAKI-1; read-out: GI50): 29.7 µM | CC50 (CAKI-1; [12]): > 100 µM | TGI (CAKI-1; read-out: TGI): > 100 µM | GI50 (CAKI-1; read-out: pGI50 (converted)): 29.5 µM | CC50 (CAKI-1; [13]): > 100 µM | TGI (CAKI-1; read-out: pTGI (converted)): > 100 µM | growth at 1000 µM (HCT-116): -88% | growth at 100 µM (SN12C): 48% | growth at 100 µM (HCC 2998 [5]): 69% | growth at 10 µM (RXF 393): 92% | GI50 (COLO 205; read-out: GI50): 3.84 µM | CC50 (COLO 205; [12]): > 100 µM | TGI (COLO 205; read-out: TGI): > 100 µM | GI50 (COLO 205; read-out: pGI50 (converted)): 3.8 µM | CC50 (COLO 205; [13]): > 100 µM | TGI (COLO 205; read-out: pTGI (converted)): > 100 µM | growth at 10 µM (SF-539): 103% | growth at 0.1 µM (Malme-3M): 104% | growth at 10 µM (T47D): 73% | growth at 100 µM (MCF7 [6]): 16% | growth at 100 µM (OVCAR-4 [7]): 53% | growth at 1 µM (SNB-75): 90% | growth at 1 µM (SF-268): 103% | growth at 1000 µM (NCI-H460): -49% | growth at 100 µM (DU-145): 24% | growth at 1000 µM (UO-31 [8]): -69% | growth at 0.1 µM (SK-OV-3): 96% | growth at 1000 µM (KM12): -28% | growth at 0.1 µM (UACC-62): 100% | growth at 0.1 µM (OVCAR-3): 114% | growth at 0.1 µM (MCF7 [9]): 96% | growth at 1 µM (OVCAR-4 [10]): 103% | growth at 10 µM (A549): 94% | growth at 0.1 µM (UO-31 [11]): 87% | growth at 100 µM (UACC-257): 34%
